Assay: xn = mol fraction of the nth substance listed
Conditions: 100 kPa

O=C1CCCO1 + CCCC[N+]1(C)CCCC1.O=S(=O)([N-]S(=O)(=O)C(F)(F)F)C(F)(F)F
x1 = 1
Conditions | electrical conductivity [S/m] | viscosity [mPa·s]
298.15 K | 0.001 | 1.73
303.15 K | 0.001 | 1.63
308.15 K | 0.001 | 1.52
313.15 K | 0.001 | 1.42
318.15 K | 0.001 | 1.35
323.15 K | 0.002 | 1.3

O=C1CCCCO1 + CCCC[n+]1ccn(C)c1.O=S(=O)([N-]S(=O)(=O)C(F)(F)F)C(F)(F)F
electrical conductivity [S/m]
Conditions | 293.15 K | 298.15 K | 303.15 K | 308.15 K | 313.15 K | 318.15 K | 323.15 K
x2 = 0.0532 | 0.167 | 0.18 | 0.195 | – | 0.225 | 0.244 | –
x2 = 0.1004 | 0.395 | – | – | – | 0.553 | 0.595 | 0.636
x2 = 0.1504 | – | 0.658 | – | 0.779 | 0.848 | 0.924 | –
x2 = 0.1999 | 0.655 | 0.725 | 0.797 | 0.87 | 0.952 | – | –
x2 = 0.2988 | 0.67 | 0.744 | 0.822 | – | 0.984 | 1.07 | 1.16
x2 = 0.4006 | – | – | 0.741 | 0.818 | 0.905 | 0.99 | 1.08
x2 = 0.5005 | 0.522 | – | 0.669 | 0.749 | 0.827 | 0.92 | 1.01
x2 = 0.5999 | 0.411 | – | 0.559 | 0.637 | 0.72 | 0.815 | 0.928
x2 = 0.7214 | 0.385 | 0.453 | 0.532 | – | 0.697 | 0.789 | –
x2 = 0.8475 | – | 0.418 | 0.495 | 0.575 | 0.658 | 0.754 | 0.858
x2 = 0.9003 | 0.34 | 0.412 | 0.484 | 0.563 | 0.646 | 0.745 | 0.846

O=C1CCCO1 + CCCC[n+]1ccn(C)c1.O=S(=O)([N-]S(=O)(=O)C(F)(F)F)C(F)(F)F
Conditions | electrical conductivity [S/m] | viscosity [mPa·s]
293.15 K, x1 = 0.1005 | 0.347 | 46.39
293.15 K, x1 = 0.1984 | 0.388 | 37.16
293.15 K, x1 = 0.4001 | 0.519 | 23.42
293.15 K, x1 = 0.5021 | 0.637 | 17.37
293.15 K, x1 = 0.5979 | 0.797 | 12.26
293.15 K, x1 = 0.7021 | 1.13 | 8.54
293.15 K, x1 = 0.7999 | 1.34 | 5.53
293.15 K, x1 = 0.8995 | 1.34 | 3.49
293.15 K, x1 = 0.95 | 1.04 | –
293.15 K, x1 = 1 | 0.001 | 1.92
298.15 K, x1 = 0.1005 | 0.428 | 38.33
298.15 K, x1 = 0.1984 | 0.469 | 30.92
298.15 K, x1 = 0.2992 | 0.546 | 24.97
298.15 K, x1 = 0.4001 | 0.618 | 19.75
298.15 K, x1 = 0.5979 | 0.928 | 10.7
298.15 K, x1 = 0.7021 | 1.29 | 7.58
298.15 K, x1 = 0.7999 | 1.5 | 5.04
298.15 K, x1 = 0.8496 | 1.53 | –
298.15 K, x1 = 0.8995 | 1.48 | 3.26
298.15 K, x1 = 0.95 | 1.14 | –
298.15 K, x1 = 1 | 0.001 | 1.73
298.15 K, x2 = 0.0151 | 0.444 | –
303.15 K, x1 = 0.1005 | 0.501 | 31.8
303.15 K, x1 = 0.1984 | 0.552 | 25.69
303.15 K, x1 = 0.4001 | 0.72 | 16.68
303.15 K, x1 = 0.5021 | 0.853 | 12.76
303.15 K, x1 = 0.5979 | 1.05 | 9.32
303.15 K, x1 = 0.7021 | 1.43 | 6.67
303.15 K, x1 = 0.7999 | 1.65 | 4.55
303.15 K, x1 = 0.8496 | 1.69 | –
303.15 K, x1 = 0.8995 | 1.61 | 2.97
303.15 K, x1 = 0.95 | 1.23 | –
303.15 K, x1 = 1 | 0.001 | 1.63
303.15 K, x2 = 0.0151 | 0.477 | –
308.15 K, x1 = 0.1005 | 0.586 | 26.88
308.15 K, x1 = 0.1984 | 0.642 | 21.98
308.15 K, x1 = 0.2992 | 0.745 | 17.9
308.15 K, x1 = 0.4001 | 0.825 | 14.35
308.15 K, x1 = 0.5021 | 0.981 | 11.04
308.15 K, x1 = 0.7021 | 1.63 | 6
308.15 K, x1 = 0.8995 | 1.75 | 2.76
308.15 K, x1 = 0.95 | 1.32 | –
308.15 K, x2 = 0.0151 | 0.509 | –
313.15 K, x1 = 0.1005 | 0.68 | 22.69
313.15 K, x1 = 0.2992 | 0.854 | 15.26
313.15 K, x1 = 0.4001 | 1 | 12.32
313.15 K, x1 = 0.5021 | 1.2 | 9.62
313.15 K, x1 = 0.7021 | 1.81 | 5.41
313.15 K, x1 = 0.7999 | 1.98 | 3.78
313.15 K, x1 = 0.8496 | 2.01 | –
313.15 K, x1 = 0.8995 | 1.88 | 2.55
318.15 K, x1 = 0.1005 | 0.768 | 19.31
318.15 K, x1 = 0.1984 | 0.85 | 15.86
318.15 K, x1 = 0.2992 | 0.965 | 13.24
318.15 K, x1 = 0.4001 | 1.19 | 10.82
318.15 K, x1 = 0.5021 | 1.4 | 8.52
318.15 K, x1 = 0.5979 | 1.64 | 6.49
318.15 K, x1 = 0.7021 | 1.99 | 4.84
318.15 K, x2 = 0.0151 | 0.576 | –
323.15 K, x1 = 0.1005 | 0.898 | 16.54
323.15 K, x1 = 0.1984 | 1.03 | 13.86
323.15 K, x1 = 0.2992 | 1.24 | 11.57
323.15 K, x1 = 0.4001 | 1.46 | 9.47
323.15 K, x1 = 0.5021 | 1.68 | 7.51
323.15 K, x1 = 0.5979 | 1.91 | 5.83
323.15 K, x1 = 0.7021 | 2.21 | 4.44
323.15 K, x1 = 0.8496 | 2.34 | –
323.15 K, x1 = 0.8995 | 2.17 | 2.18
323.15 K, x1 = 0.95 | 1.62 | –
323.15 K, x2 = 0.0151 | 0.609 | –

CCCC[n+]1ccn(C)c1.O=S(=O)([N-]S(=O)(=O)C(F)(F)F)C(F)(F)F + O=C1CCCCO1
x1 = 1
Conditions | electrical conductivity [S/m]
293.15 K | 0.337
303.15 K | 0.472
308.15 K | 0.552
313.15 K | 0.64
323.15 K | 0.835

CCCCCCCCn1cc[n+](C)c1.O=S(=O)([N-]S(=O)(=O)C(F)(F)F)C(F)(F)F + O=C1CCCO1
electrical conductivity [S/m]
Conditions | x2 = 0 | x2 = 0.0997 | x2 = 0.2993 | x2 = 0.5048 | x2 = 0.6963 | x2 = 0.7994 | x2 = 0.8503 | x2 = 0.8999 | x2 = 0.9514
293.15 K | 0.106 | 0.126 | 0.184 | – | 0.601 | 0.845 | 0.953 | 0.984 | 0.653
298.15 K | – | 0.161 | 0.235 | 0.396 | – | 0.955 | 1.06 | 1.07 | 0.718
303.15 K | 0.17 | 0.199 | 0.28 | 0.474 | 0.83 | 1.07 | 1.17 | 1.18 | –
308.15 K | – | 0.24 | 0.342 | 0.553 | 0.94 | 1.21 | 1.29 | 1.29 | 0.853
313.15 K | 0.254 | 0.285 | – | 0.636 | 1.06 | 1.33 | 1.41 | 1.39 | 0.915
318.15 K | – | – | 0.48 | 0.744 | 1.19 | 1.47 | 1.53 | – | 0.976
323.15 K | 0.361 | 0.397 | – | 0.817 | 1.33 | 1.56 | 1.64 | 1.59 | –

CCCCCC[n+]1ccn(C)c1.O=S(=O)([N-]S(=O)(=O)C(F)(F)F)C(F)(F)F + O=C1CCCO1
electrical conductivity [S/m]
Conditions | x2 = 0 | x2 = 0.1076 | x2 = 0.2973 | x2 = 0.4956 | x2 = 0.6996 | x2 = 0.8001 | x2 = 0.8456 | x2 = 0.9001 | x2 = 0.9493
293.15 K | 0.176 | 0.21 | – | 0.47 | 0.819 | 1.07 | 1.13 | – | –
298.15 K | 0.221 | – | 0.362 | 0.556 | 0.932 | 1.19 | 1.25 | 1.23 | –
303.15 K | – | 0.319 | 0.431 | – | 1.05 | 1.31 | 1.36 | – | 0.896
308.15 K | – | – | – | 0.751 | 1.17 | 1.44 | 1.49 | – | 0.968
313.15 K | 0.398 | – | – | 0.863 | – | 1.57 | – | 1.57 | 1.04
318.15 K | 0.467 | 0.539 | – | 0.979 | 1.46 | 1.71 | – | 1.69 | –
323.15 K | – | – | – | 1.11 | 1.61 | – | – | 1.8 | 1.17

Reference: a compilation of properties of binary mixtures (doi:10.2298/jsc190413047v)
